System: HUVEC
Test: Screening of TSP-1 in hPE-based angiogenesis assay
Format: cell-based, human
Procedure: Unless otherwise stated, 32 μl of placental extract was thawed and pipetted into each well of a 96 well plate. The extract was evenly coated onto the bottom of each well using an orbital shaker at 30 RPM for 1 minute. The coated plate was then incubated at 37° C. for 30 minutes. HUVEC were then plating by direct pipetting at 20000 cells/cm^2, 40000 cells/cm^2, or 80000 cells/cm^2. Multiple time points were investigated at each concentration including at days 1, 3, and 5. Thrombospondin-1 was tested as an angiogenesis inhibiting drug using final concentrations 0, 5, 10, 20, and 35 μg/μL diluted in endothelial cell media
Network formation was analyzed after staining at a concentration of 2 μg/mL Calcein AM (Invitrogen-Life Technologies, NY, USA) with Endothelial cell culture media. In a dark room, dyed cells were incubated at 37° C., 5% CO2 for 30 minutes, and then images were taken using a Zeiss Axiovert 200 inverted Fluorescence microscope (Zeiss, Thornwood, N.Y.). Images were analyzed to determine the tubule length, tubule width, branch points, and other meshwork characterizations using ImageJ 1.45s (NIH, Bethesda, Md.). Branch points were assigned manually as the positions at every node where branches meet or tubules sprout, and tubule length was assessed by determining the curve length from branch point to connected branch point. Tubule width measurements were carried out in three different zones per tubule, with two zones each 10 μm from the start and end and one zone in the middle of the curve length. The percent area of coverage was determined by processing the images using the imageJ function “binary>>convert to mask” followed by measurement of the “mean.” In TSP-1 experiments, final values were normalized to no dose samples, calculated as the percentage of “1” values relative to the total count of pixel values, and given as “% area coverage”.

TSP-1: glycoprotein with potent inhibition activity on neovascularization; model anti-angiogenic drug
angiogenic network formation with TSP-1 (HUVEC on hPE treated plates, 1 d of culture): significantly reduced angiogenic network formation | total tubule-length and branch points as a function of TSP-1 concentration (hPE-coated plates, 0-35 μg/μL TSP-1): decrease linearly | effect of TSP-1 on control HUVECs (seeded directly onto uncoated tissue culture plates, 1 d): not affected

Reference: patent US10300091B2, “Sustained release angiogenesis modulating compositions and methods for induction and modulation of angiogenesis” (University of Florida Research Foundation, Inc., priority 2013, dated 2019)
